US20230332232A1, “COMPOSITIONS AND METHODS FOR DIAGNOSING AND TREATING A DYSTONIA” (Duke University, priority 2020, published 2023)

Tested on: DYT1 knockin (Tor1a^delGAG/+) murine embryonic fibroblasts (MEFs)
Assay: Untargeted LC/MS/MS proteomics of EVs from DYT1 MEFs exposed 24 hours to drug, compared with untreated DYT1 (Het) MEFs
Assay type: cell-based, mouse
Method: Methods for isolation and purification of exosomes and extracellular vesicles (EV) were extensively reviewed. Experiments were performed to arrive at a robust and reproducible protocol. The protocol used herein is that set forth in Théry et al, 2006, which is incorporated by reference for it teaching of this protocol. This protocol involves depleting serum-derived EVs from cell culture media by overnight ultracentrifugation and exchanging media for 1% FBS EV-depleted media. Media is then collected from cells following a 24-hour conditioning period and EVs are isolated by 18-hour ultracentrifugation at 100,000 g (FIG. 1A).
EVs were isolated from media of cultured murine embryonic fibroblasts (MEFs) prepared in-house according to protocols described by Xu 2005 from DYT1 knockin mice (Tor1a^delGAG/+) (Goodchild R E, et al. (2005) Neuron. 48:923-932) and littermate wild-type (WT) controls. The cultured MEFs from the DYT1 mice were exposed for 24 hours to Ritonavir (RTV) while the MEFs from WT mice were exposed to vehicle, ISRIB, or Salubrinal (SAL). The EVs isolated from these WT cells and DYT1 were characterized by untargeted proteomics and RNA-seq to identify differentially expressed proteins and RNAs as candidate biomarkers. Experimenter and Proteomics core staff were blinded to genotype of cell cultures throughout preparation and analysis phases.
Samples were first normalized to 20 μg and spiked with undigested casein at a total of 40 fmol/μg, 80 fmol/μg, or 160 fmol/μg, then reduced with 10 mM dithiolthreitol for 30 minute at 80° C. and alkylated with 20 mM iodoacetamide for 30 minutes at room temperature. Next, the samples were supplemented with a final concentration of 1.2% phosphoric acid and 741 μL of S-Trap (Protifi) binding buffer (90% MeOH/100 mM […]). Proteins were trapped on the S-Trap, digested using 20 ng/μL sequencing grade trypsin (Promega) for 1 hour at 47° C., and eluted using 50 mM TEAB, followed by 0.2% FA, and lastly using 50% CAN/0.2% FA. All samples were then lyophilized to dryness and resuspended in 40 μL 1% TFA/2% acetonitrile containing 12.5 fmol/μL yeast alcohol dehydrogenase (ADH_YEAST). A QC Pool was created from 3 uL of each sample. All QC Pools were run periodically throughout the acquisition period.
Quantitative LC/MS/MS was performed on 2 μL of each sample, using a nanoAcquity UPLC system (Waters Corp) coupled to a Thermo Orbitrap Fusion Lumos high resolution accurate mass tandem mass spectrometer (Thermo) via a nanoelectrospray ionization source. Briefly, the sample was first trapped on a Symmetry C18 20 mm×180 μm trapping column (5 μL/min at 99.9/0.1 v/v water/acetonitrile), after which the analytical separation was performed using a 1.8 μm Acquity HSS T3 C18 75 μm×250 mm column (Waters Corp.) with a 90 minute linear gradient of 5% to 30% acetonitrile with 0.1% formic acid at a flow rate of 400 nanoliters/minute (nL/min) with a column temperature of 55° C. Data collection on the Fusion Lumos mass spectrometer was performed in a data-dependent acquisition (DDA) mode of acquisition with a r=120,000 (@ m/z 200) full MS scan from m/z 375-1500 with a target AGC value of 2e5 ions. MS/MS scans were acquired at Rapid scan rate (Ion Trap) with an AGC target of 5e3 ions and a max injection time of 100 ms. The total cycle time for MS and MS/MS scans was 2 seconds. A 20 second dynamic exclusion was employed to increase depth of coverage. The total analysis cycle time for each sample injection was approximately 2 hours.

Measured: SAL Direction Opposite ISRIB?

O=C(/C=C/c1ccccc1)NC(NC(=S)Nc1cccc2cccnc12)C(Cl)(Cl)Cl (stereo not shown) [SAL, Salubrinal]
yes: DYT1 (Het) MEF EVs, protein: DNA replication licensing factor MCM6 | DYT1 (Het) MEF EVs, protein: DNA-directed RNA polymerases I and III subunit RPAC1 | DYT1 (Het) MEF EVs, protein: Protein arginine N-methyltransferase 3 | DYT1 (Het) MEF EVs, protein: Scavenger receptor class B member 1 | DYT1 (Het) MEF EVs, protein: Serine threonine-protein phosphatase 2A 55 kDa regulatory subunit B alpha isoform | DYT1 (Het) MEF EVs, protein: Small nuclear ribonucleoprotein-associated protein B | EV protein: 26S proteasome non-ATPase regulatory subunit 8 | EV protein: 60S [?] subunit biogenesis protein [?] homolog | EV protein: 60S ribosomal protein [?] | EV protein: 116 kDa [?] small nuclear ribonucleoprotein component | EV protein: AP-3 complex subunit [?] | EV protein: ATP-dependent RNA helicase [?] | EV protein: Acyl-protein thioesterase 2 | EV protein: Anaphase-promoting complex subunit 2 | EV protein: Anaphase-promoting complex subunit 5 | EV protein: Apolipoprotein M | EV protein: Calnexin | EV protein: Cell [?] cycle protein [?] homolog | EV protein: Coiled-coil domain-containing protein 22 | EV protein: Cullin-2 | EV protein: Cullin-5 | EV protein: Cullin-7 | EV protein: DNA [?] (r264) | EV protein: DNA ligase 1 | EV protein: DNA replication licensing factor [?] | EV protein: DNA-directed RNA polymerase II subunit RPB1 | EV protein: DNA-directed RNA polymerase II subunit RPB2 | EV protein: DNA-directed RNA polymerase II subunit RPB3 | EV protein: DNA-directed RNA polymerases I, II, and III subunit RPABC3 | EV protein: DNA-directed RNA polymerases I, II, and III subunit [?] | EV protein: Double-strand-break repair protein rad21 homolog | EV protein: Elongin-B | EV protein: Exosome complex exonuclease RRP44 | EV protein: Extended synaptotagmin-1 | EV protein: Gamma-tubulin complex component 2 | EV protein: General vesicular transport factor p115 | EV protein: Glycosylated lysosomal membrane protein | EV protein: Glycylpeptide N-tetradecanoyltransferase 1 | EV protein: Golgi reassembly-stacking protein 2 | EV protein: Histone-arginine methyltransterase CARM1 | EV protein: Importin-7 | EV protein: Leucyl-cystinyl aminopeptidase | EV protein: Mediator [?] RNA polymerase II transcription subunit 23 | EV protein: Metastasis-associated protein [?] (r222) | EV protein: Metastasis-associated protein [?] (r261) | EV protein: Microtubule-associated protein [?] | EV protein: Nuclear [?] complex protein [?] | EV protein: Nuclear cap-binding protein subunit 1 | EV protein: Nuclear receptor-binding protein | EV protein: Phosphoribosyl pyrophosphate synthase-associated protein 1 | EV protein: Pigment epithelium-derived factor | EV protein: Protein O-GlcNAcase | EV protein: Protein [?] 14 homolog | EV protein: Protein [?] (r160) | EV protein: Ran-binding protein 10 | EV protein: Ribosome biogenesis protein BOP1 | EV protein: Ribosome production factor 2 homolog | EV protein: Serine threonine-protein phosphatase 6 catalytic subinit | EV protein: Sorting nexin-1 | EV protein: Trascriptional activator protein [?] -alpha | EV protein: WD repeat-containing protein [?] | EV protein: [?] -1 (r154) | EV protein: [?] -1 (r232) | EV protein: [?] -conjucating enxyme [?] | EV protein: [?] kinase | EV protein: [?] myosin- [?] | EV protein: [?] repeat-containing protein 5A | EV protein: [?] small nuclear ribonucleoprotein 40 kDa protein | EV protein: p21-activated protein kinase-interacting protein 1 | EV protein: transportin-3
